Results as given in patent US11020415B2, “Use of albiflorin in preparation of products for improving function of intestinal flora system” (priority 2016, dated 2021).

Assays:
[1] = system: intestinal flora in stressed rats; assay: Targeted metabolomics of intestinal flora metabolism in chronic unpredictable mild stress (CUMS) model rats (PLS-DA, VIP analysis); assay type: in vivo, rat
Procedure: We established a chronic unpredictable mild stress (CUMS) model of rats, and used a new generation of targeted metabolomics method to study the metabolic function of intestinal flora in stressed rats.
(§1) We further administered the stressed model rats an albiflorin treatment for 7 consecutive days at each dose of 7 mg/k& for each treatment. 7 days later, we used metabolomics and a 16sDNA high-throughput metagenomic sequencing technology to re-evaluate the function and composition of intestinal flora in the rats. […] This was consistent with the results of analysis of flora composition.
As a positive drug, fluoxetine was continuously administered for 7 days at each dose of 10 mg/kg/d.

[2] = target: cannabinoid receptor CB2 (Homo sapiens, UniProt P34972); assay: Cannabinoid receptor CB2 activity (stated, no method); details: stated as finding of the invention's research; no data or method printed
[3] = system: intestinal flora in stressed rats; assay: High-throughput 16s metagenomic sequencing of intestinal flora composition in CUMS model rats (cluster analysis); assay type: in vivo, rat; details: albiflorin 7 days
Procedure: as §1
FIG. 5 is a graph showing the cluster analysis of intestinal flora composition correlation.

[4] = after 7 days of administration of albiflorin

Chain of cannabinoid receptor CB2 (P34972 whole entry): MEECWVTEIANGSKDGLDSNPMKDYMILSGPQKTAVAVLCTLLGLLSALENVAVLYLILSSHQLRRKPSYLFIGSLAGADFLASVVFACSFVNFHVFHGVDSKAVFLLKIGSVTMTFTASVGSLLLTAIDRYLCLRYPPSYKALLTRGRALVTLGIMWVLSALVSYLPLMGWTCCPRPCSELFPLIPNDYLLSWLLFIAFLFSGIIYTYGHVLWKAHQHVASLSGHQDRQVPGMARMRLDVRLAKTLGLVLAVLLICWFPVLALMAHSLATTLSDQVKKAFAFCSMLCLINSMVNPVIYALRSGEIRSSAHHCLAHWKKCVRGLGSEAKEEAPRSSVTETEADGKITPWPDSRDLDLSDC

C[C@]12C[C@@H](O)[C@@H]3C[C@@]1(O[C@@H]1O[C@H](CO)[C@@H](O)[C@H](O)[C@H]1O)[C@@]3(COC(=O)c1ccccc1)C(=O)O2 [albiflorin]
Amounts of cholic acid, amino acids and vitamins (intestinal flora metabolites) compared with the depression group [1, 4]: increased | Overall metabolism of intestinal flora compared with the depression group (VIP analysis) [1, 4]: significantly improved | Metabolism of intestinal flora relative to the normal group (PLS-DA multiple comparative analysis of metabolomics data) ([1]; albiflorin 7 consecutive days, 7 mg/k&, FIG. 1): almost completely overlapped with the normal group | Action at cannabinoid receptor CB2 [2]: agonist | Amount of probiotic firmicutes, especially lactic acid bacteria, compared with the stressed rat model group [3]: significantly increased | Intestinal flora composition versus blank group (Control), cluster analysis [3]: no statistical difference (P>0.05)

CNCCC(Oc1ccc(C(F)(F)F)cc1)c1ccccc1 (stereo not shown) [fluoxetine, reference compound]
Metabolism of rat intestinal flora relative to the normal state (multivariable PLS-DA analysis) ([1]; fluoxetine 7 days, 10 mg/kg/d, FIG. 6): deviated the metabolism of rat intestinal flora more from the normal state
